Measurements reported in PMC5218480 (PLoS ONE, 2017).

Test system: MV-4-11 cells
Assay: Gene expression microarray analysis (Affymetrix PrimeView) and GSEA
Assay type: cell-based, human
Parameters: RFU PODN (11730768_x_at) / Fold change /veh PODN (11730768_x_at) / RFU LINC00158 (11744669_a_at) / Fold change /veh LINC00158 (11744669_a_at) / RFU DUSP10 (11751237_a_at) / Fold change /veh DUSP10 (11751237_a_at) / RFU ID3 (11757404_x_at) / Fold change /veh ID3 (11757404_x_at) / RFU PLEKHG5 (11737974_s_at) / Fold change /veh PLEKHG5 (11737974_s_at) / RFU LRRC4B (11730491_at) / Fold change /veh LRRC4B (11730491_at) / RFU GIMAP4 (11747438_a_at) / Fold change /veh GIMAP4 (11747438_a_at) / RFU KRT8 (11758183_x_at) / Fold change /veh KRT8 (11758183_x_at) / RFU CNN1 (11734310_a_at) / Fold change /veh CNN1 (11734310_a_at) / RFU VPS37D (11726825_at) / Fold change /veh VPS37D (11726825_at) / RFU C10orf10 (11716522_x_at) / Fold change /veh C10orf10 (11716522_x_at) / RFU KIR2DL2 /// KIR2DL4 /// KIR2DL5A /// KIR2DL5B /// KIR2DS1 /// KIR2DS2 /// KIR2DS3 /// KIR2DS4 /// KIR3DL3 /// KIR3DL3 /// KIR3DS1 (11738374_at) / Fold change /veh KIR2DL2 /// KIR2DL4 /// KIR2DL5A /// KIR2DL5B /// KIR2DS1 /// KIR2DS2 /// KIR2DS3 /// KIR2DS4 /// KIR3DL3 /// KIR3DL3 /// KIR3DS1 (11738374_at) / RFU C1QL1 (11718748_at) / Fold change /veh C1QL1 (11718748_at) / RFU TMPRSS4 (11747572_a_at) / Fold change /veh TMPRSS4 (11747572_a_at) / RFU HAMP (11756126_x_at) / Fold change /veh HAMP (11756126_x_at) / RFU RNFT2 (11725882_a_at) / Fold change /veh RNFT2 (11725882_a_at) / RFU NR4A2 (11747474_a_at) / Fold change /veh NR4A2 (11747474_a_at) / RFU ABCC12 (11746883_a_at) / Fold change /veh ABCC12 (11746883_a_at) / RFU TMEM136 (11760407_x_at) / Fold change /veh TMEM136 (11760407_x_at) / RFU CLDN22 /// WWC2 (11732394_at) / Fold change /veh CLDN22 /// WWC2 (11732394_at) / RFU HLA-DPB1 (11760878_x_at) / Fold change /veh HLA-DPB1 (11760878_x_at) / RFU SPINT1 (11716480_a_at) / Fold change /veh SPINT1 (11716480_a_at) / RFU GAP43 (11754022_s_at) / Fold change /veh GAP43 (11754022_s_at) / RFU A4GNT (11735810_at) / Fold change /veh A4GNT (11735810_at) / RFU PRB3 (11715151_x_at) / Fold change /veh PRB3 (11715151_x_at) / RFU TUBB4B (11761932_at) / Fold change /veh TUBB4B (11761932_at) / RFU CAPN14 (11732068_a_at) / Fold change /veh CAPN14 (11732068_a_at) / RFU TMCC2 (11721928_a_at) / Fold change /veh TMCC2 (11721928_a_at) / RFU IRGQ (11745062_a_at) / Fold change /veh IRGQ (11745062_a_at) / RFU FAM174B (11720279_a_at) / Fold change /veh FAM174B (11720279_a_at) / RFU TMPRSS4 (11748680_a_at) / Fold change /veh TMPRSS4 (11748680_a_at) / RFU FAM212B (11763350_a_at) / Fold change /veh FAM212B (11763350_a_at) / RFU PLEKHG5 (11743358_a_at) / Fold change /veh PLEKHG5 (11743358_a_at) / RFU ZSCAN30 (11745921_a_at) / Fold change /veh ZSCAN30 (11745921_a_at) / RFU CMKLR1 (11741424_a_at) / Fold change /veh CMKLR1 (11741424_a_at) / RFU LOC101060620 /// MAPK8IP1 (11723275_at) / Fold change /veh LOC101060620 /// MAPK8IP1 (11723275_at) / RFU SPTSSB (11747773_x_at) / Fold change /veh SPTSSB (11747773_x_at) / RFU PRSS12 (11739890_at) / Fold change /veh PRSS12 (11739890_at) / RFU BIN1 (11741810_x_at) / Fold change /veh BIN1 (11741810_x_at) / RFU WNT11 (11732464_a_at) / Fold change /veh WNT11 (11732464_a_at) / RFU C10orf10 (11716521_a_at) / Fold change /veh C10orf10 (11716521_a_at) / RFU C5orf56 (11738089_at) / Fold change /veh C5orf56 (11738089_at) / RFU CYB561 (11721691_x_at) / Fold change /veh CYB561 (11721691_x_at) / RFU ANKRD19P (11752326_a_at) / Fold change /veh ANKRD19P (11752326_a_at) / RFU OR2T12 /// OR2T33 /// OR2T8 (11738714_s_at) / Fold change /veh OR2T12 /// OR2T33 /// OR2T8 (11738714_s_at) / RFU VCAN (11748164_a_at) / Fold change /veh VCAN (11748164_a_at) / RFU JSRP1 (11732532_at) / Fold change /veh JSRP1 (11732532_at) / RFU KRTAP10-11 (11738290_x_at) / Fold change /veh KRTAP10-11 (11738290_x_at) / RFU MYO3A (11730013_a_at) / Fold change /veh MYO3A (11730013_a_at) / RFU EBF3 (11725865_a_at) / Fold change /veh EBF3 (11725865_a_at) / RFU CAMK2N1 (11719241_x_at) / Fold change /veh CAMK2N1 (11719241_x_at) / RFU C5orf56 (11738088_a_at) / Fold change /veh C5orf56 (11738088_a_at) / RFU OLFML3 (11715873_a_at) / Fold change /veh OLFML3 (11715873_a_at) / RFU LOC100653217 /// NTM (11731650_a_at) / Fold change /veh LOC100653217 /// NTM (11731650_a_at) / RFU MAPK11 (11762145_a_at) / Fold change /veh MAPK11 (11762145_a_at) / RFU FIZ1 (11724087_x_at) / Fold change /veh FIZ1 (11724087_x_at) / RFU OASL (11726364_x_at) / Fold change /veh OASL (11726364_x_at) / RFU SOX15 (11748057_x_at) / Fold change /veh SOX15 (11748057_x_at) / RFU CD79A (11719716_a_at) / Fold change /veh CD79A (11719716_a_at) / RFU HIST1H1D (11736915_at) / Fold change /veh HIST1H1D (11736915_at) / RFU CASKIN2 (11723855_a_at) / Fold change /veh CASKIN2 (11723855_a_at) / RFU LOC730098 (11760151_x_at) / Fold change /veh LOC730098 (11760151_x_at) / RFU OR4N2 (11742367_at) / Fold change /veh OR4N2 (11742367_at) / RFU PRRT2 (11749266_a_at) / Fold change /veh PRRT2 (11749266_a_at) / RFU SNX32 (11753110_a_at) / Fold change /veh SNX32 (11753110_a_at) / RFU CDHR5 (11726645_a_at) / Fold change /veh CDHR5 (11726645_a_at) / RFU RCAN1 (11760418_a_at) / Fold change /veh RCAN1 (11760418_a_at) / RFU FAM167A (11723789_a_at) / Fold change /veh FAM167A (11723789_a_at) / RFU FAM26E (11764081_at) / Fold change /veh FAM26E (11764081_at) / RFU ISYNA1 (11749810_s_at) / Fold change /veh ISYNA1 (11749810_s_at) / RFU ACY1 (11761880_at) / Fold change /veh ACY1 (11761880_at) / RFU 11764098_at / Fold change /veh 11764098_at / RFU SAMD14 (11745864_x_at) / Fold change /veh SAMD14 (11745864_x_at) / RFU NPB (11741838_a_at) / Fold change /veh NPB (11741838_a_at) / RFU TMPRSS6 (11731388_a_at) / Fold change /veh TMPRSS6 (11731388_a_at) / RFU KRTAP10-2 (11738614_at) / Fold change /veh KRTAP10-2 (11738614_at) / RFU ARHGAP8 /// PRR5-ARHGAP8 (11727945_x_at) / Fold change /veh ARHGAP8 /// PRR5-ARHGAP8 (11727945_x_at) / RFU KRTAP5-7 /// NADSYN1 (11734609_at) / Fold change /veh KRTAP5-7 /// NADSYN1 (11734609_at) / RFU RASL12 (11751679_a_at) / Fold change /veh RASL12 (11751679_a_at) / RFU CDKN2B (11736163_a_at) / Fold change /veh CDKN2B (11736163_a_at) / RFU PRF1 (11729649_at) / Fold change /veh PRF1 (11729649_at) / RFU, ZNF638 /// ZNF638-IT1 / Fold change vs veh, ZNF638 /// ZNF638-IT1 / RFU, PANK3 / Fold change vs veh, PANK3 / RFU, SH3YL1 / Fold change vs veh, SH3YL1 / RFU, ZEB2 / Fold change vs veh, ZEB2 / RFU, NRIP1 / Fold change vs veh, NRIP1 / RFU, PTTG1IP / Fold change vs veh, PTTG1IP / RFU, CAPN2 / Fold change vs veh, CAPN2 / RFU, MED14 / Fold change vs veh, MED14 / RFU, SNORA58 / Fold change vs veh, SNORA58 / RFU, C1orf63 / Fold change vs veh, C1orf63 / RFU, LRRFIP1 / Fold change vs veh, LRRFIP1 / RFU, NDUFAF7 / Fold change vs veh, NDUFAF7 / RFU, SLC12A2 / Fold change vs veh, SLC12A2 / RFU, IBTK / Fold change vs veh, IBTK / RFU, ESF1 / Fold change vs veh, ESF1 / Fold change vs veh, TMEM50B / RFU, TAOK1 / Fold change vs veh, TAOK1 / RFU, ACBD3 / Fold change vs veh, ACBD3 / RFU, TMA16 / Fold change vs veh, TMA16 / RFU, RWDD3 / Fold change vs veh, RWDD3 / RFU, BCAT1 / Fold change vs veh, BCAT1 / RFU, EDEM3 / Fold change vs veh, EDEM3 / RFU, TMEM33 / Fold change vs veh, TMEM33 / RFU, WDR75 / Fold change vs veh, WDR75 / RFU, AHCTF1 / Fold change vs veh, AHCTF1 / RFU, TFRC / Fold change vs veh, TFRC / RFU, ZDHHC17 / Fold change vs veh, ZDHHC17 / RFU, NOM1 / Fold change vs veh, NOM1 / RFU, ARL8B / Fold change vs veh, ARL8B / RFU, ZBTB11 / Fold change vs veh, ZBTB11 / RFU, TAMM41 / Fold change vs veh, TAMM41 / RFU, KIAA1704 /// LOC100996395 / Fold change vs veh, KIAA1704 /// LOC100996395 / RFU, ING1 / Fold change vs veh, ING1 / RFU, TRMT61B / Fold change vs veh, TRMT61B / RFU, FUBP3 / Fold change vs veh, FUBP3 / RFU, TP53 / Fold change vs veh, TP53 / RFU, TNKS2 / Fold change vs veh, TNKS2 / RFU, ZFP14 / Fold change vs veh, ZFP14 / RFU, ACTR2 / Fold change vs veh, ACTR2 / RFU, PPP3R1 / Fold change vs veh, PPP3R1 / RFU, PIK3R1 / Fold change vs veh, PIK3R1 / RFU, HNRNPA1 / Fold change vs veh, HNRNPA1 / RFU, RNF170 / Fold change vs veh, RNF170 / RFU, ZNF28 / Fold change vs veh, ZNF28 / RFU, RNGTT / Fold change vs veh, RNGTT / RFU, OGT / Fold change vs veh, OGT / RFU, BRD1 / Fold change vs veh, BRD1 / RFU, MARS / Fold change vs veh, MARS / RFU, ZNF655 / Fold change vs veh, ZNF655 / RFU, FAHD1 / Fold change vs veh, FAHD1 / RFU, BDP1 / Fold change vs veh, BDP1 / RFU, LRRCC1 / Fold change vs veh, LRRCC1 / RFU, ARID1A / Fold change vs veh, ARID1A / RFU, ZNF146 / Fold change vs veh, ZNF146 / RFU, ZNF330 / Fold change vs veh, ZNF330 / RFU, GPN3 / Fold change vs veh, GPN3 / RFU, C9orf123 / Fold change vs veh, C9orf123 / RFU, N4BP2L2 / Fold change vs veh, N4BP2L2 / RFU, ARFIP1 / Fold change vs veh, ARFIP1 / RFU, FAM179B / Fold change vs veh, FAM179B / RFU, BCL10 / Fold change vs veh, BCL10 / RFU, UHRF1BP1L / Fold change vs veh, UHRF1BP1L / RFU, BET1 / Fold change vs veh, BET1 / RFU, CNOT2 / Fold change vs veh, CNOT2 / RFU, ZNF268 / Fold change vs veh, ZNF268 / Fold change vs veh, ZNF507 / RFU, DGCR2 / Fold change vs veh, DGCR2 / RFU, WDSUB1 / Fold change vs veh, WDSUB1 / Fold change vs veh, HSP90B1 /// MIR3652 / RFU, ADSS / Fold change vs veh, ADSS / RFU, GK / Fold change vs veh, GK / RFU, ZNF148 / Fold change vs veh, ZNF148 / RFU, TAF9 / Fold change vs veh, TAF9 / RFU, SLC1A5 / Fold change vs veh, SLC1A5 / RFU, SLMO2 / Fold change vs veh, SLMO2 / RFU, ABCC4 / Fold change vs veh, ABCC4 / RFU, LOC101060439 /// RAP1B / Fold change vs veh, LOC101060439 /// RAP1B / RFU, RFX7 / Fold change vs veh, RFX7 / RFU, GTPBP10 / Fold change vs veh, GTPBP10 / RFU, CNEP1R1 / Fold change vs veh, CNEP1R1 / RFU, BIVM-ERCC5 /// ERCC5 / Fold change vs veh, BIVM-ERCC5 /// ERCC5 / RFU, ILF3 / Fold change vs veh, ILF3 / RFU 11762660_at / Fold change /veh 11762660_at / RFU VCAN (11757783_s_at) / Fold change /veh VCAN (11757783_s_at) / RFU DDX43 (11728927_at) / Fold change /veh DDX43 (11728927_at) / RFU KRT8 (11758188_x_at) / Fold change /veh KRT8 (11758188_x_at) / RFU NKD1 (11759106_at) / Fold change /veh NKD1 (11759106_at) / RFU SRD5A1 (11742802_a_at) / Fold change /veh SRD5A1 (11742802_a_at) / RFU TPSAB1 /// TPSB2 (11721975_s_at) / Fold change /veh TPSAB1 /// TPSB2 (11721975_s_at) / RFU GSTM3 (11746129_a_at) / Fold change /veh GSTM3 (11746129_a_at) / RFU IL23R (11737362_x_at) / Fold change /veh IL23R (11737362_x_at) / RFU TMEM51 (11727254_a_at) / Fold change /veh TMEM51 (11727254_a_at) / RFU PIWIL2 (11732686_x_at) / Fold change /veh PIWIL2 (11732686_x_at) / RFU ORM1 (11744905_x_at) / Fold change /veh ORM1 (11744905_x_at) / RFU CCDC152 (11743942_at) / Fold change /veh CCDC152 (11743942_at) / RFU ECM1 (11717891_a_at) / Fold change /veh ECM1 (11717891_a_at) / RFU IL23R (11748794_a_at) / Fold change /veh IL23R (11748794_a_at) / RFU TNFAIP8L3 (11732012_x_at) / Fold change /veh TNFAIP8L3 (11732012_x_at) / RFU MBOAT4 (11741988_at) / Fold change /veh MBOAT4 (11741988_at) / RFU 11764193_at / Fold change /veh 11764193_at / RFU TMEM53 (11763286_at) / Fold change /veh TMEM53 (11763286_at) / RFU MAGEB2 (11727129_at) / Fold change /veh MAGEB2 (11727129_at) / RFU TMEM200A (11744735_a_at) / Fold change /veh TMEM200A (11744735_a_at) / RFU CCDC152 (11751479_a_at) / Fold change /veh CCDC152 (11751479_a_at) / RFU FAM211A (11726209_a_at) / Fold change /veh FAM211A (11726209_a_at) / RFU RGS16 (11746705_a_at) / Fold change /veh RGS16 (11746705_a_at) / RFU VCAN (11755009_s_at) / Fold change /veh VCAN (11755009_s_at) / RFU RHOB (11743442_s_at) / Fold change /veh RHOB (11743442_s_at) / RFU RGS16 (11720943_a_at) / Fold change /veh RGS16 (11720943_a_at) / RFU RGS16 (11720944_at) / Fold change /veh RGS16 (11720944_at) / RFU, VPS4B / Fold change vs veh, VPS4B / RFU, CREB1 / Fold change vs veh, CREB1 / RFU, DNAJC13 / Fold change vs veh, DNAJC13 / RFU, GNAQ / Fold change vs veh, GNAQ / RFU, CDK5R1 / Fold change vs veh, CDK5R1 / RFU, ZRANB3 / Fold change vs veh, ZRANB3 / RFU, CUL4A / Fold change vs veh, CUL4A / RFU, CCNY / Fold change vs veh, CCNY / RFU, UFL1 / Fold change vs veh, UFL1 / RFU, COG3 / Fold change vs veh, COG3 / RFU, DIAPH2 / Fold change vs veh, DIAPH2 / RFU, SKA2 / Fold change vs veh, SKA2 / RFU, AFF3 / Fold change vs veh, AFF3 / RFU, LMF1 / Fold change vs veh, LMF1 / RFU, IPO11 / Fold change vs veh, IPO11 / RFU, DFFB / Fold change vs veh, DFFB / RFU, FOXP1 / Fold change vs veh, FOXP1 / RFU, CARD8 / Fold change vs veh, CARD8 / RFU, STRN3 / Fold change vs veh, STRN3 / RFU, ADK / Fold change vs veh, ADK / RFU, RASSF2 / Fold change vs veh, RASSF2 / RFU, WIPF1 / Fold change vs veh, WIPF1 / RFU, LARP1B / Fold change vs veh, LARP1B / RFU, RASA1 / Fold change vs veh, RASA1 / RFU, RB1 / Fold change vs veh, RB1 / RFU, PPFIA1 / Fold change vs veh, PPFIA1 / RFU, MAT2A / Fold change vs veh, MAT2A / RFU, CCT5 / Fold change vs veh, CCT5 / RFU, WDR92 / Fold change vs veh, WDR92 / RFU, CUX1 / Fold change vs veh, CUX1 / RFU, TTC7A / Fold change vs veh, TTC7A / RFU, TMEM135 / Fold change vs veh, TMEM135 / RFU, DEPTOR / Fold change vs veh, DEPTOR / RFU, CPM / Fold change vs veh, CPM / RFU, DNAJB6 / Fold change vs veh, DNAJB6 / RFU, CACNA2D3 / Fold change vs veh, CACNA2D3 / RFU, DTX4 / Fold change vs veh, DTX4 / RFU, TFCP2 / Fold change vs veh, TFCP2 / RFU, GMCL1 /// GMCL1P1 / Fold change vs veh, GMCL1 /// GMCL1P1 / RFU, AEBP2 / Fold change vs veh, AEBP2 / RFU, SNHG1 /// SNORD22 /// SNORD25 /// SNORD26 /// SNORD27 /// SNORD28 /// SNORD29 /// SNORD31 / Fold change vs veh, SNHG1 /// SNORD22 /// SNORD25 /// SNORD26 /// SNORD27 /// SNORD28 /// SNORD29 /// SNORD31 / Fold change (Aza/veh), C12orf56 (ProbeSet 11735607_a_at) / Fold change (ACY-1035/veh), C12orf56 (ProbeSet 11735607_a_at) / Fold change (Aza/veh), FGFR1OP (ProbeSet 11751329_s_at) / Fold change (ACY-1035/veh), FGFR1OP (ProbeSet 11751329_s_at) / Fold change (Aza/veh), VPS36 (ProbeSet 11739960_a_at) / Fold change (ACY-1035/veh), VPS36 (ProbeSet 11739960_a_at) / RFU SYPL1 (11715823_x_at) / Fold change /veh SYPL1 (11715823_x_at) / RFU IGFBP7 (11715501_s_at) / Fold change /veh IGFBP7 (11715501_s_at) / RFU REEP3 (11722064_at) / Fold change /veh REEP3 (11722064_at) / RFU IGLL1 (11728026_x_at) / Fold change /veh IGLL1 (11728026_x_at): dose or concentration left out as unconfirmed
Details: MV-4-11 cells, 48 hours

Nc1ncn([C@@H]2O[C@H](CO)[C@@H](O)[C@H]2O)c(=O)n1 [azacitidine]
Fold change /veh FAM167A (11723789_a_at): 1.19
